{
  "source": "patent US5260210A",
  "about": "“Blood-brain barrier model” (priority 1990, dated 1993)",
  "key": {"blood-brain barrier [1]": {"system": "blood-brain barrier", "test": "In vivo tracer experiment: brain uptake of ^3 H-sucrose and ^125 I-BSA after i.v. injection", "design": "species or system mouse", "settings": "Example 11 text", "description": "The test compound was delivered to a restrained, unanesthetized mouse (30-35 g) via the tail vein. […] Fifteen or sixty minutes after the injection, the animal, anesthetized with 2% Avertin, was perfused via venipuncture with phosphate buffered saline followed by fixative. The brain was removed immediately, the medulla, pons and hypothalamus excised and the remaining tissue homogenized by passsage through a 3 cc needle into a preweighed scintillation vial containing 1.5 ml Soluene (Packard). The vial was weighed to determine wet tissue weight. Ten ml of Inst-Gel (Packard) was added to each sample after overnight incubation at 75° C. The samples were counted for DPM by liquid scintillation spectrometry. Values are expressed as DPM/gm tissue. A minimum of four animals/group were used for each experiment. Data are expressed as the mean fold-increase which is derived by dividing the treatment value by the control value. Numbers in parenthesis represent the number of experiments carried out for the particular condition."}, "[2]": {"system": "bovine brain capillary endothelial cells", "test": "Transmonolayer (transendothelial cell) electrical resistance in the in vitro BBB model", "settings": "for effect of phosphodiesterase inhibitors on resistance: FIG. 7, Rolipram or RO-20-1724 17.5 μM, by 30 minutes, no other cyclic AMP elevating agents; for activity at 0.2 µM / activity at 0.01 µM / activity at 0.03 µM / activity at 0.1 µM: Bos taurus, Endothelial cell, read-out: Resistance (% of control)", "description": "The degree of tightness of tight junctions can be also assessed by transcellular electrical resistance measurements. For transendothelial cell resistance measurements, cells were grown on a porous solid support, e.g., a filter or membrane attached to a holding device in order adequately to suspend the cellular monolayer, such as the Costar Transwell apparatus or the ICN Cellogen. […] Cells were maintained in a growth medium or physiological saline, and calomel electrodes on each of the endothelial cells are connected by a saturated KCl - 3% agar bridge. Current is passed between two Ag--AgCl electrodes and the voltage measured with a Keithly multimeter. Resistance is calculated from the change in voltage across the monolayer induced when a short current pulse (10-100 μamp) is applied. The resistance of the filter or membrane alone is subtracted. The resistance, multiplied by the surface area of the filter or membrane, yields the resistance in ohms-cm^2.\nBovine brain capillary endothelial cells were grown on polycarbonate filters in a conditioned growth medium containing either 5% or 10% PDHS. In controls, the growth medium contained 5% PDHS (.quadrature.) or 10% PDHS. […]\nBovine brain endothelial cells were dissociated and plated on tissue culture dishes in 50% MEM/FCS - 50% ADCM. […]\nBovine brain microvascular endothelial cells were isolated and grown on permeable filters in the BBB in vitro model of the invention. Cells were maintained in astrocyte-derived conditioned medium, but were not treated with agents that elevate cyclic AMP levels in such cells.\nResistance was then measured at various times.\nThe medium containing these cyclic AMP elevating agents was removed, and the cells were washed with fresh growth medium."}, "bovine endothelial cells [3]": {"system": "bovine endothelial cells", "test": "Transport across high resistance monolayers of bovine endothelial cells on filters", "format": "in vitro ADME", "settings": "FIG. 3; compared to cell-free filters", "description": "Still another means for assessing the tightness of junctions among endothelial cells in the blood-brain model of the invention is to compare the transport of a hydrophilic compound, e.g., sucrose, and a hydrophobic compound of similar size, e.g., chlorambucil, across filters with and without monolayered endothelial cells. When the transmonoloayer resistance is high, the transport of sucrose should be low compared to that of chlorambucil (or other hydrophobic compounds of similar size). Alternatively, when the resistance is high, the transport of sucrose should be much less (e.g., 50-fold or more) than across cell-free filters."}, "bovine endothelial cells [4]": {"system": "bovine endothelial cells", "settings": "leaky tight junctions; cited from earlier work"}, "blood-brain barrier [5]": {"system": "blood-brain barrier", "test": "Brain uptake of ^3 H-sucrose and ^125 I-BSA after intracarotid infusion", "format": "in vivo", "description": "Staurosporine was administered by intracarotid infusion. The transport of ^3 H-sucrose and ^125 I-BSA was then determined. The data in Table 7 represent the amount of radioactivity remaining in the brain after infusion and washout. An average of 3-4 animals was used in each category."}, "brain endothelial cells": {"system": "brain endothelial cells", "test": "Leukocyte binding to cultures of blood brain barrier endothelial cells", "format": "cell-based, bovine or human", "settings": "Table 14; Jurkat T-cell; + TNFα; two values per cell", "protocol": "When used to treat lymphocytes, the anti-β-1 hybridoma supernatant was used at a 1:2 dilution. The anti-α-4 antibody was purified by the manufacturer, and used at a 5 μg/ml concentration. The anti-β-2 was purified by the manufacturer, and used at 5 μg/ml. For treatment of lymphocytes, the lymphocytes were mixed with the above concentrations of antibody, and allowed to incubate on ice for a about 30 minutes prior to use. The cells were washed to remove unbound antibody, and resuspended in RPMI to a typical concentration of 10^7 cells/ml.\nBovine or human brain endothelial cells were maintained in accordance with the blood brain barrier model as described in the present specification. […]\nIn this manner, the endothelial cells were exposed to the agent on their ablumenal surface, as would be the typical situation during an inflammatory reaction in the brain. Immediately before the assay, the electrical resistance of the cultures was measured and the filters (supporting the endothelial cells) were washed at room temperature by dipping in three separate vats of D-MEM with 1% FBS and 20 mM Hepes (200 mls. each). […]\nIn the second method, the leukocytes were prelabeled with a radioactive tracer and the degree of binding was quantified by measuring the amount of radioactivity associated with the entire endothelial surface on the culture filter. […]"}, "[6]": {"system": "Type III cyclic GMP-noninhibitable phosphodiesterase", "test": "Inhibition of cyclic AMP phosphodiesterase of brain microvascular endothelial cells"}, "[7]": {"test": "Behavioral assay: opioid-induced analgesia, hot plate", "format": "in vivo, mouse", "settings": "Table 9, enkephalin 20 mg/kg", "description": "Morphine and the naturally occurring opioid peptides, endorphin and enkephalin, bind to μ opioid receptors in the brain and suppress the sensation of pain. […] Mice are placed on a surface uniformly heated to 55° C. The time it takes for the mouse to respond to the heat stimulus by licking its front or hind paws is measured. […] The latency is expressed as % analgesia. [formula] The purpose of these experiments is to test the ability of putative BBB openers to shift the morphine dose response curve to lower doses and thus have analgesic activity when delivered peripherally."}, "blood-brain barrier [8]": {"system": "blood-brain barrier", "settings": "in vivo; cited from earlier work"}, "[9]": {"settings": "Table 7, Experiment 1, intracarotid infusion, 3-4 animals"}},
  "note": "Values joined by “and” are separate entries in the source; they are usually repeats but may differ in a detail not shown here. Identical values can stand only once. Like-named read-outs stand apart in the source and are kept apart here.",
  "data": [
    {"molecule": "C[C@H](Cc1ccccc1)Nc1ncnc2c1ncn2[C@@H]1O[C@H](CO)[C@@H](O)[C@H]1O", "note": "[R-PIA, N^6 -(phenylisopropyl)-adenosine]", "values": [
      {"measurement": "increase of uptake by brain of small (sucrose) and large (BSA) molecules", "setting": "blood-brain barrier [1]", "result": "≤ 300", "unit": "%"}
    ]},
    {"molecule": "CCCOc1ccccc1-c1nc2nn[nH]c2c(=O)[nH]1", "note": "[zaprinast]", "values": [
      {"measurement": "effect of phosphodiesterase inhibitors on resistance", "setting": "[2]", "result": "ineffective"}
    ]},
    {"molecule": "Nc1ncnc2c1nc(Sc1ccc(Cl)cc1)n2[C@@H]1O[C@@H]2COP(=O)(O)O[C@H]2[C@H]1O", "note": "[cyclic AMP analogue, 8-(4-chlorophenylthio) cyclic AMP]", "values": [
      {"measurement": "effect on transmonolayer electrical resistance", "setting": "[2]; Example 1, FIG. 1, 250 μM, 5% PDHS", "result": "greatly increased transmonolayer electrical resistance"}
    ]},
    {"molecule": "OC[C@H]1O[C@@H](n2cnc3c(NC4CCCC4)ncnc32)[C@H](O)[C@@H]1O", "note": "[CPA, cyclopentyladenosine]", "values": [
      {"measurement": "increase of uptake by brain of small (sucrose) and large (BSA) molecules", "setting": "blood-brain barrier [1]", "result": "≤ 300", "unit": "%"}
    ]},
    {"molecule": "COC(=O)[C@@]1(O)C[C@H]2O[C@]1(C)n1c3ccccc3c3c4c(c5c6ccccc6n2c5c31)C(=O)NC4", "note": "[K252a]", "values": [
      {"measurement": "reversibility of effect of protein kinase inhibitors", "setting": "[2]", "result": "reversible"},
      {"measurement": "effect of protein kinase inhibitors on resistance", "setting": "[2]; 10-200 nM", "result": "markedly reduce the resistance"},
      {"measurement": "activity at 0.2 µM", "setting": "[2]; 1 h", "result": 79, "unit": "%"},
      {"measurement": "activity at 0.2 µM", "setting": "[2]; 2.5 h", "result": 25, "unit": "%"},
      {"measurement": "activity at 0.2 µM", "setting": "[2]; 24 h", "result": 24, "unit": "%"}
    ]},
    {"molecule": "C=C[C@@]1(C)CC(=O)[C@]2(O)[C@@]3(C)[C@@H](O)CCC(C)(C)[C@@H]3[C@H](O)[C@H](OC(C)=O)[C@@]2(C)O1", "note": "[Forskolin, forskolin]", "values": [
      {"measurement": "enhancement of transmonolayer electrical resistance", "setting": "[2]; brain capillary endothelial cells", "result": "over 8 fold"}
    ]},
    {"molecule": "Cc1[nH]c(=O)c(C#N)cc1-c1ccncc1", "note": "[milrinone]", "values": [
      {"measurement": "effect of phosphodiesterase inhibitors on resistance", "setting": "[2]", "result": "ineffective"}
    ]},
    {"molecule": "OC[C@H]1O[C@@](CO)(O[C@H]2O[C@H](CO)[C@@H](O)[C@H](O)[C@H]2O)[C@@H](O)[C@@H]1O", "note": "[sucrose]", "values": [
      {"measurement": "transport across filters with cells", "setting": "bovine endothelial cells [3]", "result": "almost entirely prevented from leaking between the cells"},
      {"measurement": "difference in the rate of sucrose across filters with and without cells, previous models", "setting": "bovine endothelial cells [4]", "result": "3 to 5", "unit": "fold"}
    ]},
    {"molecule": "CN[C@@H]1C[C@H]2O[C@@](C)([C@@H]1OC)n1c3ccccc3c3c4c(c5c6ccccc6n2c5c31)C(=O)NC4", "note": "[Staurosporine]", "values": [
      {"measurement": "radioactivity remaining in the brain, ^3 H-Sucrose", "setting": "blood-brain barrier [5]", "result": "8.7 × 10^3 DPM"},
      {"measurement": "radioactivity remaining in the brain, ^3 H-Sucrose", "setting": "blood-brain barrier [5]; [9]", "result": "24.3 × 10^3 DPM"},
      {"measurement": "radioactivity remaining in the brain, ^125 I-BSA", "setting": "blood-brain barrier [5]; [9]", "result": 835, "unit": "DPM"},
      {"measurement": "radioactivity remaining in the brain, ^125 I-BSA", "setting": "blood-brain barrier [5]; Table 7, Experiment 2, intracarotid infusion, 3-4 animals", "result": 520, "unit": "DPM"},
      {"measurement": "effect on entry of tracers into the brain", "setting": "blood-brain barrier [5]; intracarotid infusion", "result": "enhanced entry into the brain of both small (sucrose) and large (BSA) molecules"},
      {"measurement": "activity at 0.01 µM", "setting": "[2]; 1 h", "result": 108, "unit": "%"},
      {"measurement": "activity at 0.03 µM", "setting": "[2]; 1 h", "result": 64, "unit": "%"},
      {"measurement": "activity at 0.1 µM", "setting": "[2]; 1 h", "result": 5.5, "unit": "%"},
      {"measurement": "activity at 0.01 µM", "setting": "[2]; 2.5 h", "result": 20, "unit": "%"},
      {"measurement": "activity at 0.03 µM", "setting": "[2]; 2.5 h", "result": 7.7, "unit": "%"},
      {"measurement": "activity at 0.1 µM", "setting": "[2]; 2.5 h", "result": 0, "unit": "%"},
      {"measurement": "activity at 0.01 µM", "setting": "[2]; 24 h", "result": 5.2, "unit": "%"},
      {"measurement": "activity at 0.03 µM", "setting": "[2]; 24 h", "result": 2.3, "unit": "%"},
      {"measurement": "activity at 0.1 µM", "setting": "[2]; 24 h", "result": 0, "unit": "%"}
    ]},
    {"molecule": "TNFα", "values": [
      {"measurement": "lymphocyte binding, Count per Minute", "setting": "brain endothelial cells", "result": "1430 Count per Minute and 1150 Count per Minute"}
    ]},
    {"molecule": "COc1ccc(C2CNC(=O)C2)cc1OC1CCCC1", "note": "(stereo not drawn) [Rolipram]", "values": [
      {"measurement": "inhibition of phosphodiesterase", "setting": "[6]", "result": "inhibited"},
      {"measurement": "effect of phosphodiesterase inhibitors on resistance", "setting": "[2]", "result": "substantially higher"}
    ]},
    {"molecule": "CC(C)C[C@H](NC(=O)[C@H](Cc1ccccc1)NC(=O)CNC(=O)CNC(=O)[C@@H](N)Cc1ccc(O)cc1)C(=O)O", "note": "[Enkephalin]", "values": [
      {"measurement": "Percent Analgesia", "setting": "[7]; Experiment 1", "result": 2.8, "unit": "%"},
      {"measurement": "Percent Analgesia", "setting": "[7]; Experiment 2", "result": 6.4, "unit": "%"},
      {"measurement": "penetration into the brain / BBB crossing", "setting": "blood-brain barrier [8]", "result": "does not penetrate significantly into the brain"}
    ]},
    {"molecule": "N[C@@H](Cc1ccc(O)c(O)c1)C(=O)O", "note": "[L-DOPA]", "values": [
      {"measurement": "penetration into the brain / BBB crossing", "setting": "blood-brain barrier [8]", "result": "can cross the BBB"}
    ]},
    {"molecule": "CCCCOc1cc(CC2CNC(=O)N2)ccc1OC", "note": "(stereo not drawn) [RO-20-1724]", "values": [
      {"measurement": "inhibition of phosphodiesterase", "setting": "[6]", "result": "inhibited"},
      {"measurement": "effect of phosphodiesterase inhibitors on resistance", "setting": "[2]", "result": "substantially higher"}
    ]}
  ]
}
